Measurements published in PubChem BioAssay AID330 (DTP/NCI, 2004).
Several values for one entry are separate records, joined by “and”; a condition that tells them apart may be missing. Equal values may be shown once. Inconclusive results and toxic doses are left out.

Test system: P388 leukemia ip, CD2F1 mice, survival T/C
Experiment: NCI In Vivo Anticancer Drug Screen. Data for tumor model P388 Leukemia (intraperitoneal) in CD2F1 (CDF1) mice
Settings: endpoint: median survival time, higher = longer survival
Outline: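 Mice carrying the transplanted tumor received test compound or vehicle. Survival was recorded in each group, and the value is the treated-group measurement divided by that of the vehicle-treated control group.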

[1] = dose: 50.0 mg/kg/injection, schedule: Q01DX009 (ip), vehicle: saline with Tween-80
[2] = dose: 100.0 mg/kg/injection, schedule: Q01DX009 (ip), vehicle: saline with Tween-80
[3] = dose: 50.0 mg/kg/injection, schedule: Q04DX002 (ip), vehicle: saline with Tween-80
[4] = dose: 100.0 mg/kg/injection, schedule: Q04DX002 (ip), vehicle: saline with Tween-80
[5] = dose: 60.0 mg/kg/injection, schedule: Q01DX005 (ip), vehicle: saline with Tween-80
[6] = dose: 120.0 mg/kg/injection, schedule: Q01DX005 (ip), vehicle: saline with Tween-80
[7] = dose: 50.0 mg/kg/injection, schedule: Q01DX005 (ip), vehicle: saline with Tween-80
[8] = dose: 100.0 mg/kg/injection, schedule: Q01DX005 (ip), vehicle: saline with Tween-80
[9] = dose: 100.0 mg/kg/injection, schedule: Q04DX003 (ip), vehicle: Klucel (hydroxypropylcellulose) (HPC)
[10] = dose: 200.0 mg/kg/injection, schedule: Q04DX003 (ip), vehicle: Klucel (hydroxypropylcellulose) (HPC)
[11] = dose: 60.0 mg/kg/injection, schedule: Q01DX005 (ip), vehicle: Klucel (hydroxypropylcellulose) (HPC)
[12] = dose: 120.0 mg/kg/injection, schedule: Q01DX005 (ip), vehicle: Klucel (hydroxypropylcellulose) (HPC)
[13] = dose: 240.0 mg/kg/injection, schedule: Q01DX005 (ip), vehicle: Klucel (hydroxypropylcellulose) (HPC)

## COc1c2c(c(O)c3c4c(c(C)cc13)C1OC3(C(OC)OC5CC(C)(O)C(OC6CC(C)(O)C(O)C(C)O6)C(C)O5)OC1C(OC)(O4)C31CO1)C(=O)C(O)CC2OC1CC(C)(O)C(OC(C)=O)C(C)O1 (stereo not drawn)
dose: 0.06 mg/kg/injection, schedule: Q01DX005 (ip), vehicle: saline
  T/C: 158 % of control
dose: 0.13 mg/kg/injection, schedule: Q01DX005 (ip), vehicle: saline
  T/C: 155 % of control and 166 % of control

## C/C=C1\CN(C)C2Cc3c([nH]c4ccccc34)C(c3c(OC)ccc4c5c([nH]c34)C3(C(=O)OC)CC4CC(CC)C3N(CC5)C4)CC1C2C(=O)OC (stereo not drawn)
dose: 12.5 mg/kg/injection, schedule: Q01DX009 (ip), vehicle: saline with Tween-80
  T/C: 115 % of control
dose: 25.0 mg/kg/injection, schedule: Q01DX009 (ip), vehicle: saline with Tween-80
  T/C: 106 % of control
[1]
  T/C: 106 % of control
[2]
  T/C: 91 % of control

## O=C(O)CC(=O)O.[NH-]C1CCCC1[NH-].[Pt+2]
dose: 6.25 mg/kg/injection, schedule: Q04DX002 (ip), vehicle: saline
  T/C: 114 % of control
[3]
  T/C: 169 % of control
[4]
  T/C: 185 % of control
dose: 200.0 mg/kg/injection, schedule: Q04DX002 (ip), vehicle: saline with Tween-80
  T/C: 197 % of control

## Cc1ccc2cccc(C(=O)N(C)C)c2[n+]1C
dose: 31.2 micrograms/kg/injection, schedule: Q04DX002 (ip), vehicle: saline
  T/C: 100 % of control
dose: 62.5 micrograms/kg/injection, schedule: Q04DX002 (ip), vehicle: saline
  T/C: 103 % of control

## CC(=O)Nc1ccc(/C=C/c2ccc(N=C=S)cc2S(=O)(=O)O)c(S(=O)(=O)O)c1
[1]
  T/C: 110 % of control
[2]
  T/C: 110 % of control

## O=C(Nc1ccc(C2=NCCN2)cc1)c1ccc(C(=O)Nc2ccc(C3=NCCN3)cc2)c(Cl)c1
dose: 0.2 mg/kg/injection, schedule: Q01DX009 (ip), vehicle: saline with Tween-80
  T/C: 99 % of control
dose: 0.39 mg/kg/injection, schedule: Q01DX009 (ip), vehicle: saline with Tween-80
  T/C: 117 % of control
dose: 0.78 mg/kg/injection, schedule: Q01DX009 (ip), vehicle: saline with Tween-80
  T/C: 122 % of control
dose: 20.0 mg/kg/injection, schedule: Q01DX010 (ip), vehicle: water
  T/C: 163 % of control
dose: 45.0 mg/kg/injection, schedule: Q04DX003 (ip), vehicle: saline
  T/C: 95 % of control

## COC(=O)c1cc(OC)c2cccnc2c1Nc1ccccc1
[5]
  T/C: 102 % of control
[6]
  T/C: 102 % of control
dose: 240.0 mg/kg/injection, schedule: Q01DX005 (ip), vehicle: saline with Tween-80
  T/C: 100 % of control

## O=C(NC(=O)c1ccccc1Cl)Nc1ccc(C(O)(C(F)(F)F)C(F)(F)F)cc1
[7]
  T/C: 104 % of control
[8]
  T/C: 102 % of control
dose: 200.0 mg/kg/injection, schedule: Q01DX005 (ip), vehicle: saline with Tween-80
  T/C: 100 % of control

## CCC1(O)CCC2C3CC=C4CCCCC4C3CCC21C (stereo not drawn)
dose: 50.0 mg/kg/injection, schedule: Q01DX009 (ip), vehicle: saline
  T/C: 107 % of control
dose: 100.0 mg/kg/injection, schedule: Q01DX009 (ip), vehicle: saline
  T/C: 100 % of control
dose: 200.0 mg/kg/injection, schedule: Q01DX009 (ip), vehicle: saline
  T/C: 100 % of control

## O=C1OCCOCCOCCOCCOC(=O)c2cccc1n2
[9]
  T/C: 105 % of control
[10]
  T/C: 104 % of control
dose: 400.0 mg/kg/injection, schedule: Q04DX003 (ip), vehicle: Klucel (hydroxypropylcellulose) (HPC)
  T/C: 102 % of control

## COC(=O)c1ccccc1N=NNc1ccccc1C#N
dose: 100.0 mg/kg/injection, schedule: Q01DX001 (ip), vehicle: Klucel (hydroxypropylcellulose) (HPC)
  T/C: 109 % of control
dose: 200.0 mg/kg/injection, schedule: Q01DX001 (ip), vehicle: Klucel (hydroxypropylcellulose) (HPC)
  T/C: 103 % of control
dose: 400.0 mg/kg/injection, schedule: Q01DX001 (ip), vehicle: Klucel (hydroxypropylcellulose) (HPC)
  T/C: 94 % of control

## CC1(O)OC(COc2ccc(Cl)cc2)COC1O (stereo not drawn)
[5]
  T/C: 112 % of control
[6]
  T/C: 103 % of control

## COc1ccc(/C=C2/C(=O)N(c3ccccc3)N=C2C)cc1OC
[11]
  T/C: 101 % of control
[12]
  T/C: 93 % of control
[13]
  T/C: 90 % of control

## CC(=O)C(c1ccccc1)[N+](C)(C)C (stereo not drawn)
dose: 25.0 mg/kg/injection, schedule: Q04DX003 (ip), vehicle: other
  T/C: 100 % of control
dose: 50.0 mg/kg/injection, schedule: Q04DX003 (ip), vehicle: other
  T/C: 100 % of control
dose: 100.0 mg/kg/injection, schedule: Q04DX003 (ip), vehicle: other
  T/C: 98 % of control

## CC1(C)C=Cc2c(ccc3c(=O)c(-c4ccc5c(c4)OCO5)coc23)O1
dose: 25.0 mg/kg/injection, schedule: Q04DX002 (ip), vehicle: saline with Tween-80
  T/C: 107 % of control
[3]
  T/C: 101 % of control
[4]
  T/C: 99 % of control and 108 % of control

## COC1C=C(Br)C(=O)C(C)O1 (stereo not drawn)
[9]
  T/C: 98 % of control
[10]
  T/C: 106 % of control

## COc1c(CBr)c(CBr)c(OC)c2c1C(=O)c1ccccc1C2=O
dose: 12.5 mg/kg/injection, schedule: Q01DX005 (ip), vehicle: saline with Tween-80
  T/C: 100 % of control
dose: 25.0 mg/kg/injection, schedule: Q01DX005 (ip), vehicle: saline with Tween-80
  T/C: 99 % of control
[7]
  T/C: 100 % of control and 112 % of control
[8]
  T/C: 95 % of control

## O=C(CN1CCN(c2ccccc2)CC1)n1cnc2ccc([N+](=O)[O-])cc21
[5]
  T/C: 96 % of control
[6]
  T/C: 91 % of control

## CC(Cc1ccccc1)N(C)C1=C(CCC#N)CC(C(C)(C)C)CC1 (stereo not drawn)
dose: 50.0 mg/kg/injection, schedule: Q01DX005 (ip), vehicle: saline
  T/C: 100 % of control
dose: 100.0 mg/kg/injection, schedule: Q01DX005 (ip), vehicle: saline
  T/C: 100 % of control

## COc1ccc(C2c3cc4c(cc3OC3(N5CCCC5)CCCCC23)OCO4)cc1 (stereo not drawn)
[11]
  T/C: 99 % of control
[12]
  T/C: 94 % of control
[13]
  T/C: 88 % of control
